The source of these data is patent publication US11510964B2, “Macrocyclic peptides to decrease c-Myc protein levels and reduce cancer cell growth” (University of Kansas, priority 2017, dated 2022).

“Also recorded” adds a separate entry of the source. Where two headings read alike, the source gives them in different places. Non-standard residues stand in square brackets, D forms with d. Residues, ends and D or L forms follow the SMILES beside them. Where only a bound is given, the exact number is not on record here.

Data set [1] relates to 22Rv1 cells. Format: cell-based, human. To be noted: read-out: IC50, cell growth. On the procedure:
(§1) Human prostate cancer PC-3 cells were cultured and maintained in EMEM (ATCC), non-prostate HEK (human embryonic kidney) cells were cultured in DMEM, human prostate cancer DU145, LNCaP, 22Rv1 cells were cultured in RPMI 1640 (ATCC), and normal BPH-1 prostate cells and prostate cancer C4-2 cell line were cultured in RPMI 1640 (ATCC), all containing 10% fetal bovine serum (Atlanta Biologicals) and 1% penicillin/streptomycin (Invitrogen). Cells were grown at 37° C. in humidified air with 5% CO2 and passaged every fourth to fifth day following trypsinization with trypsin/EDTA (Invitrogen).^16
(§2) PC-3, LNCaP, DU 145, 22Rv1, C4-2, BPH-1, and HEK cells were grown to a density of 2000 cells/well in 96 well plates and treated with [D-Trp]CJ-15,208 or other peptides for 24-72 h in duplicate. Media containing [D-Trp]CJ-15,208 was changed every 24 h. The proliferation of treated cells was determined using the cell proliferation reagent WST-1 (Roche) per the manufacturer's instructions and compared to […] control cells in 1% DMSO in media. After treatment with compound 10 μL of the reagent was added to the well in 100 μL culture media, and the cells incubated at 37° C. for 30 min. The absorbance of the media in each well was measured at […] using a plate reader (BioTek). The percentage cell proliferation was normalized to vehicle treated control cells calculated as: (mean absorbance of sample/mean absorbance of control cells)×100.^38
(§3) Each experiment was performed in triplicate unless otherwise stated in the figure legend. GraphPad Prism 5 was used to determine IC50 values. Data represent the mean value+/−SEM. Compound vs. vehicle treated cells in the cell cycle phase and apoptosis experiments (FIGS. 5-8) were compared using the student's t-test, with a two-tailed, unpaired method, using the Prism software. The effects of compound vs. vehicle treatment on protein levels (FIG. 10) were evaluated by one-way ANOVA with Dunnett's test for multiple comparisons.

The test system of data set [2] is DU145 cells. Format: cell-based, human. To be noted: read-out: IC50, cell growth. On the procedure: as §1, §2, §3
The test system of data set [3] is LNCaP cells. The format is cell-based, human. Particulars: read-out: IC50, cell growth. Here is the method: as §1, §2, §3
In data set [4] the test system is PC-3 cells. Format: cell-based, human. To be noted: read-out: IC50, cell growth. Here is the method:
as §1, §2, §3

Data set [5] deals with BPH-1 cells. Briefly: Cell proliferation assay (WST-1). The format is cell-based. On the procedure: as §1, §2, §3
The test system of data set [6] is C4-2 cells. Kind of data set: Cell proliferation assay (WST-1). Format: cell-based. On the procedure: as §1, §2, §3
Data set [7] deals with 22Rv1 cells. Kind of data set: Cell viability assay (Trypan Blue). The format is cell-based, human. To be noted: 48 h and 72 h. On the procedure:
(§4) The viability of prostate cancer cells was determined using Trypan Blue (Sigma) per the manufacturer's instructions. Cells were grown in 6 well plates to a density of 1×10^5 cells/well to 75% confluency and treated with compound in 0.5% DMSO at the indicated concentrations for 24-72 h, with 0.5% DMSO as the vehicle control. After treatment, the cell media from each well was collected. The cells were washed with phosphate buffer saline (PBS), trypsinized, and collected. All of the cells, combined media, and washes were centrifuged at 250×g for 5 min. The supernatant was discarded, and the cell pellet was resuspended in 500 μL PBS. Trypan blue (10 μL) was added to 100 μL of resuspended cells, and the solution incubated for 10 min. The cell number in 10 μL was then counted using a hematocytometer. Viable cells (not stained) were distinguished from dead cells (colored blue) and the % viable cells calculated as follows: [(number of white cells)/(number of total cells (white+blue))]*100 and compared with untreated cells.^16

Data set [8] has as its system LNCaP cells. Kind of data set: Cell viability assay (Trypan Blue). Format: cell-based, human. To be noted: 48 h and 72 h. On the procedure: as §4
Data set [9] concerns PC-3 cells. Kind of data set: Cell viability assay (Trypan Blue). The format is cell-based, human. Particulars: 48 h and 72 h. On the procedure: as §4
Data set [10] has as its system siRNA-transfected PC-3 cells. Briefly: c-Myc knockdown, Annexin V-APC/PI apoptosis assay. Format: cell-based, human. Particulars: 10 μM, 48 h. On the procedure:
The extent of apoptosis was analyzed by detecting surface expression of phosphatidylserine on apoptotic cells using an Annexin V-APC/PI dual staining apoptosis detection kit I (BD Biosciences) according to the manufacturer's protocol. Following treatment of PC-3 cells with 10 μM [D-Trp]CJ-15,208 or vehicle for 24 h or 48 h, the cells were collected, washed twice with cold PBS, and resuspended in 1× binding buffer at a concentration of 1×10^6 cells/mL. Cell suspension (100 μL) was transferred to a 5 ml culture tube, and 5 μL of Annexin V-APC and 25 μL of PI (50 μg/mL) were added. The cells were incubated for 15 min at room temperature in the dark with gentle vortexing, 400 μL of 1× binding buffer was then added to each sample, and the samples were analyzed using a Beckman-Coulter MoFlo XDP flow cytometer within one hour. The number of viable, apoptotic and necrotic cells were quantified using FlowJo v10.0.7. The apoptosis fraction (%) was calculated as (number of apoptotic cells/the number of total cells observed)×100%.^38
PC-3 cells were seeded at a density of 2×10^6 cells in 10 cm plates and grown to 75-85% confluence in EMEM supplemented with 10% FBS and penicillin/streptomycin. […] Samples were analyzed using a BD FACSCanto-II cell analyzer and quantified in FlowJo v10.2. […]

The conditions of data set [11]: mice, dose of 60 mg/kg; cited from earlier work.

As a reminder, the IC50 is the midpoint of a concentration-inhibition curve. As for `O=C1N[C@H](Cc2c[nH]c3ccccc23)C(=O)N[C@@H](Cc2ccccc2)C(=O)N2CCC[C@@H]2C(=O)N[C@H]1Cc1ccccc1` [[D-Trp]CJ-15,208, cyclo[Phe-D-Pro-Phe-D-Trp]] (cyclo(F[dP]F[dW])), the concentration for half-maximal inhibition (IC50) in data set [1] (48 h) is 8.8 ± 4 µM; in data set [1] (72 h), 4 ± 0.8 µM; in data set [2] (48 h), 1.2 ± 0.2 µM; in [2] (72 h), 0.7 ± 0.1 µM; in data set [3] (48 h), above 50 µM; in data set [3] (72 h), 3 ± 1 µM. The values for the IC50 in [4] (48 h) and in [4] (72 h) were 16.5 ± 0.7 µM and 2 ± 1 µM, respectively. Besides, the “IC50, cell growth” value in [5] (48 h), in [5] (72 h), in data set [6] (48 h) and in data set [6] (72 h) was “No effect” throughout. Also, in data set [5] (time not stated), the “effect on cell proliferation / cytotoxicity” value is given as “No cytotoxicity was observed; also recorded: did not prevent cell proliferation”. In [6] (time not stated), the “effect on cell proliferation” value is listed as “no effect; also recorded: did not prevent cell proliferation”. Also, the “cell death (Trypan blue)” value in data set [7], in [8] and in data set [9] was “resulted in cell death” in each case. Also, the values for the early apoptosis entry in data set [10] (PC-3 transfected with nontargeting siRNA) and in data set [10] (PC-3 transfected with siRNA against c-Myc) were “significantly increased early apoptosis” and “did not significantly affect”, respectively. Further, in data set [11], the toxicity result was “no evidence of toxicity”.
